These are literature values, as cited in patent US10744140B2, “Synergistic nutraceutical beverage formulations providing enhanced thermogenesis, mental clarity, and stamina while minimizing adrenaline and dopamine concentration perturbations associated with withdrawal” (Power Supplements, LLC., priority 2016, dated 2020).

For one data set, the target named is T1, rhesus monkey TAAR1 (Macaca mulatta, UniProt Q8HZ64).
T1 construct: expressed in transfected cells; host or cells: HEK293 (transient, with CRE-Luc and pGL4.73 reporters)
T1 sequence (Q8HZ64 1-338): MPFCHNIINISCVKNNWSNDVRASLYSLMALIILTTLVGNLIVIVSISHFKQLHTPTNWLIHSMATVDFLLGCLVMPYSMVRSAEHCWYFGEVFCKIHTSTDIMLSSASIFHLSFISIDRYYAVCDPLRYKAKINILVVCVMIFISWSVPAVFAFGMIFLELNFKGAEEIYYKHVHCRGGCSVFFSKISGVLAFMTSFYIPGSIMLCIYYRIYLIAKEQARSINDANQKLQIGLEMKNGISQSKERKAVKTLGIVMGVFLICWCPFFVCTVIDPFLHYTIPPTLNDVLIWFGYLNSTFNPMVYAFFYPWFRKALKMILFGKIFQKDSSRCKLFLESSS
As to conditions: HEK293 cells transfected with rhesus monkey TAAR1, CRE-Luc reporter.

The target in data set [1] is T2, rat trace amine receptor (rTAR1) (Rattus norvegicus, UniProt Q923Y9).
T2 construct: expressed in transfected cells; host or cells: HEK 293
T2 sequence (Q923Y9 whole entry): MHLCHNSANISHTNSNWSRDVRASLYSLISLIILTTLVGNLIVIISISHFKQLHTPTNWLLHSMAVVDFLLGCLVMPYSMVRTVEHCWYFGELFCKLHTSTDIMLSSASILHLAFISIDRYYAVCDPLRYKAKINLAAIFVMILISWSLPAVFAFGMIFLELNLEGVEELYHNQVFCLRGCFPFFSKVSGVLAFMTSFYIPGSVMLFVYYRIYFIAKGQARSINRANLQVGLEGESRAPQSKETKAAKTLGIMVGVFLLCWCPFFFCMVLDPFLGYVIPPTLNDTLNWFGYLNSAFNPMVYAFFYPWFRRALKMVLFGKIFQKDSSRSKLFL
To be noted: 1 μM, HEK 293 cells.

The test system of another data set is young females. To be noted: 50 mg, two months.
Another data set relates to humans. As to conditions: higher of two single doses (100 mg, 250 mg).
In the next data set the test system is primate brain. To be noted: acute administration.
For data set [2], the system named is SERT (serotonin transporter). To be noted: cells expressing TAAR1 and SERT.
Data set [3] concerns DAT (dopamine transporter). To be noted: cells expressing TAAR1 and DAT.
Data set [4] relates to NET (norepinephrine transporter). To be noted: cells expressing TAAR1 and NET.

As for `NCC(O)c1ccc(O)cc1` (stereo not shown) [OCT, octopamine], the “TAAR1 activation (cAMP production)” value at rhesus monkey TAAR1 was “activates TAAR1”.

On to `NCCc1c[nH]c2ccccc12` [TRY, tryptamine], for which, at rhesus monkey TAAR1, the “TAAR1 activation (cAMP production)” value is on record as “activates TAAR1”.

On to `CN(C)CCc1ccc(O)cc1` [hordenine, N,N-dimethyltyramine], for which, in [1], the “potency in stimulating cAMP production through the rTAR1” value is reported as “almost identical potency to that of the same concentration of β-phenethylamine”. In addition, in the data set with horses (2 mg/kg intravenous (IV)), the heart rate entry was “doubled”, the “increase of the rate of respiration” value is 250%, the respiratory distress result is listed as “substantial respiratory distress” and the “time until all effects disappeared” value is at most 30 min. Also, the “effects after oral dosing” value with horses (same dose (2 mg/kg) given orally) is recorded as “did not produce any of the effects seen after parenteral administration”. Also, in the data set on dogs and rats, the blood pressure entry was “increased systolic and diastolic blood pressure”; the “effect on the heart (strength of contraction)” value is “positive inotropic effect on the heart”; the “movements of the gut” value was “inhibited”; the peripheral blood flow entry is on record as “increased the volume of peripheral blood flow”.

`Cc1ncc(C[n+]2csc(CCO)c2C)c(N)n1` [thiamine]: in the data set with young females, the “attention (decision times in choice reaction time tasks)” value was “improved attention” and the “mood (Profile of Mood States)” value is recorded as “improved mood”.

For the molecule `NCCc1ccc(O)cc1` [tyramine], the “potency in stimulating cAMP production through the rTAR1” value in data set [1] is “slightly higher than that of hordenine”. Also, the “TAAR1 activation (cAMP production)” value on rhesus monkey TAAR1 is recorded as “activates TAAR1”.

Turning to `Cc1ncc(CO)c(CO)c1O` [vitamin B6, pyridoxine], the dream salience result with humans was “increase in dream salience”. Besides, the “serotonin synthesis in the brain” value in the data set on primate brain was “increased serotonin synthesis”.

For `NCCc1ccccc1` [β-PEA, 2-phenylethylamine], the “uptake of serotonin by its transporter” value in data set [2] is “reduces the uptake of the monoamines”. The “uptake of dopamine by its transporter” value in data set [3] is given as “reduces the uptake of the monoamines”. The “uptake of norepinephrine by its transporter” value in [4] is “reduces the uptake of the monoamines”. Besides, the “TAAR1 activation (cAMP production)” value on rhesus monkey TAAR1 is recorded as “activates TAAR1”.
